Molecules are shown by their SMILES. Some results are limits rather than exact numbers.

Assay [1] deals with HCV NS3/4A protease complex, BMS strain (Hepatitis C virus genotype 1a, UniProt P27958, C1454S/C1711G). Description: FRET peptide assay to monitor HCV NS3/4A proteolytic activity (BMS strain). It is filed as biochemical. Particulars: read-out: IC50 against the NS3/4A BMS strain in the enzyme assay. The text has this: HCV NS3 protease complexes, derived from the BMS strain, H77 strain or J4L6S strain, were generated, as described below. These purified recombinant proteins were generated for use in a homogeneous assay (see below) to provide an indication of how effective compounds of the present disclosure would be in inhibiting HCV NS3 proteolytic activity.
HCV NS3/4A protease complex, BMS strain, sequence (P27958 1027-1711 C1454S/C1711G, one chain of several): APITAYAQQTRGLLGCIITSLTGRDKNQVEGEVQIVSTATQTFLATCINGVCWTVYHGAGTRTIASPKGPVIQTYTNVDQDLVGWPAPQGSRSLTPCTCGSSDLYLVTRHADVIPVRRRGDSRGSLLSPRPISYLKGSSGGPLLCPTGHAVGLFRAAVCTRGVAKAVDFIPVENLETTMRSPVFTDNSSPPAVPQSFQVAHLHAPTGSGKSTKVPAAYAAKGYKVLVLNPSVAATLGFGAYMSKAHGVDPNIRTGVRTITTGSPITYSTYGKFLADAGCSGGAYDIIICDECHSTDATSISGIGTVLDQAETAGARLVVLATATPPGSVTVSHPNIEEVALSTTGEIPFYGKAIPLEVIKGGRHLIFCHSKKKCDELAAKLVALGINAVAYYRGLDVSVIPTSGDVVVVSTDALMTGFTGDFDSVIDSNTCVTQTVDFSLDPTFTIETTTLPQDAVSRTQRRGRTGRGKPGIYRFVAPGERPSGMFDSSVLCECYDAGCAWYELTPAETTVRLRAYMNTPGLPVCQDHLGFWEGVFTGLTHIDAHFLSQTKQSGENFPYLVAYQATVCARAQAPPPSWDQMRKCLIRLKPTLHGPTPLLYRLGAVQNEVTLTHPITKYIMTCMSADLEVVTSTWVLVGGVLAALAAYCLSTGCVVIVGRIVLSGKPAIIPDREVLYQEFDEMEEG
Serum from an HCV-infected patient was obtained from Dr. T. Wright, San Francisco Hospital. […]
In order to monitor HCV NS3/4A protease activity, an NS3/4A peptide substrate was used. […] The peptide also contains a fluorescence donor, EDANS, near one end of the peptide and an acceptor, DABCYL, near the other end. The fluorescence of the peptide is quenched by […] resonance energy transfer (RET) between the donor and the acceptor, but as the NS3 protease cleaves the peptide the products are released from RET quenching and the fluorescence of the donor becomes apparent.
The peptide substrate was incubated with one of the three recombinant NS3/4A protease complexes, in the absence or presence of a compound of the present disclosure. The inhibitory effects of a compound was determined by monitoring the formation of fluorescent reaction product in real time using a Cytofluor Series 4000. […]

Assay [2] deals with T1, human neutrophil elastase (HNE) (Homo sapiens, UniProt P08246).
T1 construct: purchased Sigma or EMDbiosciences
T1 sequence (P08246 30-267): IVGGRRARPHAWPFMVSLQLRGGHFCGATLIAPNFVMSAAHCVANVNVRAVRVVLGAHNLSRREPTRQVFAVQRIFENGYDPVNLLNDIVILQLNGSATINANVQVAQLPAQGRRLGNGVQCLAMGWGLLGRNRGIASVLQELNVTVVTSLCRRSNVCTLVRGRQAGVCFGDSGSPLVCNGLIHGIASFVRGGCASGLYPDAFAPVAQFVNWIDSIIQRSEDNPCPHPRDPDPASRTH
Description: Specificity assay, neutrophil elastase. It is filed as biochemical. Particulars: read-out: HLE activity in the specificity assay (IC50). How it is done: The specificities of compounds of the present disclosure were determined against a variety of serine proteases: human neutrophil elastase (HNE), porcine pancreatic elastase (PPE) and human pancreatic chymotrypsin and one cysteine protease: human liver cathepsin B. In all cases, a 96-well plate format protocol using colorimetric p-nitroaniline (pNA) substrate or fluorometric Amino-Methyl-Coumarin (AMC) substrate, specific for each enzyme was used as described previously (PCT Patent Application No. WO 00/09543) with some modifications. All enzymes were purchased from Sigma or EMDbiosciences while the substrates were from Bachem.
Each pNA assay included a 2 h enzyme-inhibitor pre-incubation at room temperature followed by addition of substrate and hydrolysis to ˜15% conversion as measured on a Spectramax Pro microplate reader. The cathepsin B assay was initiated by adding substrate to a 10 min enzyme-inhibitor pre-incubation at room temperature, and the assay plate measured immediately using the Cytofluor Series 4000. Compound concentrations varied from 100 to 0.4 μM depending on their potency.
50 mM Tris(hydroxymethyl)aminomethane hydrochloride (Tris-HCl) pH 8, 0.5 M Sodium Sulfate (Na2SO4), 50 mM NaCl, 0.1 mM EDTA, 3% DMSO, 0.01% Tween-20 with: […]
The percentage of inhibition was calculated using the formula: [1−((UVinh−UVblank)/(UVctl−UVblank))]×100 […]

Regarding `CC(C)(C)OC(=O)N[C@H]1CN(C2CC2)CCC/C=C\C2C[C@@]2(C(=O)NS(=O)(=O)C2CC2)NC(=O)[C@@H]2C[C@@H](Oc3ccccn3)CN2C1=O` (some centres unmarked) [Compound 1], the IC50 in assay [1] is 98 nM; in assay [2], > 100000 nM.

(Values after patent US20080107625A1, “Inhibitors of Hepatitis C Virus” (Bristol-Myers Squibb Company, priority 2006, published 2008).)
